Where two headings read alike, the source gives them in different places. One block for each compound: values may come before it.
Columns and labels:
[1] = target: T1, GST-GK derived from human liver GK (Homo sapiens, UniProt P35557); experiment: In vitro GK activating action measurement test; type: biochemical; details: 10 min; test compound 1 μmol/L, glucose 2.5 mmol/L, 25° C.; read-out: GK activation rate (%)
T1 construct: made in house; host or cells: Escherichia coli DH5α
T1 sequence (P35557 1-466 isoform P35557-2): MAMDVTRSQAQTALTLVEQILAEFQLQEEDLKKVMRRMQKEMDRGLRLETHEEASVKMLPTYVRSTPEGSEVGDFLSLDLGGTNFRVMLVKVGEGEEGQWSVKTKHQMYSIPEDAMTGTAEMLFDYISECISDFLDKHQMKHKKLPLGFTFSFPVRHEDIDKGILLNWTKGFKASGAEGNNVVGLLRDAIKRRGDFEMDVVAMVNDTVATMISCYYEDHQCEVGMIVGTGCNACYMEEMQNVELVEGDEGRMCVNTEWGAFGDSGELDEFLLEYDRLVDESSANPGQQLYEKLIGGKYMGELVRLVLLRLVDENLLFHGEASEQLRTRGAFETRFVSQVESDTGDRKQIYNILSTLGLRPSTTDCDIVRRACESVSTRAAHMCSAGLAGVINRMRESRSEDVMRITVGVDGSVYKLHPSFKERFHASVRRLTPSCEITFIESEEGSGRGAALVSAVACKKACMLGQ
Description: cDNA (GenBank Accession No. NM_033507, human glucokinase, variant 2) encoding human liver-type GK polypeptide was cloned by performing a polymerase chain reaction (hereinafter referred to as “PCR”) using a human liver cDNA library (Human liver QUICK-Clone cDNA, TAKARA BIO INC.), and the thus cloned cDNA was then introduced into an expression vector (pGEX-3X, GE Healthcare Japan) for glutathione S transferase (hereinafter referred to as GST) fusion proteins. The resulting vector was introduced into Escherichia coli (Competent high DH5α, Toyobo Co., Ltd.), and the transformed Escherichia coli was then cultured at 37° C. Thereafter, Isopropyl β-D-1-thiogalactopyranoside (final concentration: 1 mmol/L, Sigma Aldrich Japan) was added to the culture, and the obtained mixture was then cultured at 30° C. for 3 hours. Thereafter, a cell mass was recovered. The recovered cell mass was subjected to freezing-and-thawing, and the resulting cell mass was then suspended in Triton-X that had been added in a final concentration of 1% to a phosphate buffer, followed by disintegration with an ultrasonic disintegrator. The homogenate was centrifuged at 33,200 rpm at 4° C. for 1 hour. Thereafter, the supernatant was recovered, and a GST-GK fusion protein was then purified using a glutathione column (GSTrap FF, GE Healthcare Japan). The obtained GST-GK fusion protein was divided into some portions each having a small volume, and the thus divided proteins were then preserved at −80° C.
A GK assay was carried out at 25° C. at a final incubation volume of 100 μL using a flat-bottom 96-well assay plate. An assay buffer comprised 25 mmol/L Hepes buffer (pH 7.1), 25 mmol/L KCl, 2.5 mmol/L or 10 mmol/L D-glucose, 5 mmol/L ATP, 1 mmol/L nicotinamide adenine dinucleotide phosphate (abbreviated as NADP), 2 mmol/L MgCl2, 1 mmol/L dithiothreitol (DTT), 2 units/mL glucose-6 phosphate dehydrogenase (G6PDH), and 1 μg/mL GST-GK derived from human liver GK. ATP, G6PDH, and NADP were purchased from Roche Diagnostics. […] The thus mixed solution was preincubated in an incubator in which the temperature was controlled at 25° C. for 15 minutes. Subsequently, the reaction was initiated by adding 10 μL of the GST-GK solution to the reaction mixture, resulting in a final concentration of 0.1 μg/mL. After initiation of the reaction, an increase in the optical concentration at 340 nm (OD340) was monitored with a microplate spectrophotometer (Varsamax, Molecular Devices Japan K. K.) every 10 seconds over an incubation period of 10 minutes. An inclination of the OD340 increase was defined as raw data. The GK activating rate was indicated as a numerical value obtained from the expression: (Inclination of OD340 increase by addition of the test compound)/(inclination of OD340 increase without addition of the test compound). The results of the GK activating rate obtained at a test compound concentration of 1 μmol/L under the condition of a glucose concentration of 2.5 mmol/L are shown in the following table 2.

[2] = Evaluation of organ selectivity (non-binding drug concentration in liver and pancreas after oral administration); type: in vivo, normal mice (C57BL/6j mice); details: C57BL/6j, mouse, mice, 150 minutes after administration
Experimental: A test compound suspended in 10% (v/v) Gelucire 44/14 (GATTEFOSSE) was orally administered to normal mice (C57BL/6j mice, CLEA Japan, Inc.). The percentages of drugs that had not bound to proteins in the liver and the pancreas, which had been obtained by the in vitro test, were […] the total concentrations of the drugs in the liver and the pancreas obtained 150 minutes after administration of the drugs, so as to calculate the non-binding concentration of the drug in each case. The ratio of the non-binding concentration of the drug in the […] was calculated, and thus, liver selectivity was evaluated. As a comparative compound, PSN-GK1 described in non-patent document 11 (corresponding to Example 94 of patent document 2) was produced according to the method described in patent document 2, and the produced comparative compound was then evaluated in the same manner as described above (in the table, the comparative compound is indicated as PSN-GK1).

[3] = as above; type: in vivo, normal mice (C57BL/6j mice); details: C57BL/6j, mouse, liver and pancreas, mice, 150 minutes after administration
[4] = liver, dose 10 mg/kg, read-out: Non-binding concentration (ng/mL) Liver
[5] = pancreas, dose 10 mg/kg, read-out: Non-binding concentration (ng/mL) Pancreas

activity at 1 µM [1]: 803%
concentration at 150 min [2, 4]: 65 ng/mL
concentration at 150 min [2, 5]: 3.8 ng/mL
Compound: CC(=O)N1CC[C@H](C[C@@H](C(=O)Nc2ncc(F)s2)c2ccc(S(=O)(=O)C3CC3)cc2)C1 [Example 3, (R)-3-((S)-1-acetylpyrrolidin-3-yl)-2-(4-(cyclopropylsulfonyl)phenyl)-N-(5-fluorothiazol-2-yl)propanamide]
selectivity ratio at 150 min ([3]; dose 10 mg/kg): 17

activity at 1 µM [1]: 484%
Compound: CNC(=O)N1CC[C@H](C[C@@H](C(=O)Nc2ncc(C)s2)c2ccc(S(=O)(=O)C3CC3)cc2)C1 [Example 16, (S)-3-((R)-2-(4-(cyclopropylsulfonyl)phenyl)-3-((5-methylthiazol-2-yl)amino)-3-oxopropyl)-N-methylpyrrolidine-1-carboxamide]

activity at 1 µM [1]: 422%
Compound: CCCNC(=O)N1CC[C@H](C[C@@H](C(=O)Nc2ncc(F)s2)c2ccc(S(=O)(=O)C3CC3)cc2)C1 [Example 6, (S)-3-((R)-2-(4-(cyclopropylsulfonyl)phenyl)-3-((5-fluorothiazol-2-yl)amino)-3-oxopropyl)-N-propylpyrrolidine-1-carboxamide]

concentration at 150 min ([2]; liver, dose 30 mg/kg, read-out: Non-binding concentration (ng/mL) Liver): 23 ng/mL
concentration at 150 min ([2]; pancreas, dose 30 mg/kg, read-out: Non-binding concentration (ng/mL) Pancreas): 0.56 ng/mL
Compound: CNC(=O)N1CC[C@H](C[C@@H](C(=O)Nc2ncc(F)s2)c2ccc(S(=O)(=O)C3CC3)cc2)C1 [Example 2, (S)-3-((R)-2-(4-(cyclopropylsulfonyl)phenyl)-3-((5-fluorothiazol-2-yl)amino)-3-oxopropyl)-N-methylpyrrolidine-1-carboxamide]
selectivity ratio at 150 min ([3]; dose 30 mg/kg): 41

activity at 1 µM [1]: 535%
Compound: CNC(=S)N1CC[C@H](C[C@@H](C(=O)Nc2ncc(F)s2)c2ccc(S(=O)(=O)C3CC3)cc2)C1 [Example 8, (R)-2-(4-(cyclopropylsulfonyl)phenyl)-N-(5-fluorothiazol-2-yl)-3-((S)-1-(methylcarbamothioyl)pyrrolidin-3-yl)propanamide]

activity at 1 µM [1]: 737%
Compound: CNC(=O)N1CC[C@H](C[C@@H](C(=O)Nc2ncc(Cl)s2)c2ccc(S(=O)(=O)C3CC3)cc2)C1 [Example 15, (S)-3-((R)-3-((5-chlorothiazol-2-yl)amino)-2-(4-(cyclopropylsulfonyl)phenyl)-3-oxopropyl)-N-methylpyrrolidine-1-carboxamide]

activity at 1 µM [1]: 877%
Compound: COc1cnc(NC(=O)[C@H](C[C@H]2CCN(C(C)=O)C2)c2ccc(S(=O)(=O)C3CC3)cc2)s1 [Example 26, (R)-3-((S)-1-acetylpyrrolidin-3-yl)-2-(4-(cyclopropylsulfonyl)phenyl)-N-(5-methoxythiazol-2-yl)propanamide]

activity at 1 µM [1]: 602%
Compound: O=C(Nc1ncc(F)s1)[C@H](C[C@H]1CCN(C(=O)NO)C1)c1ccc(S(=O)(=O)C2CC2)cc1 [Example 10, (S)-3-((R)-2-(4-(cyclopropylsulfonyl)phenyl)-3-((5-fluorothiazol-2-yl)amino)-3-oxopropyl)-N-hydroxypyrrolidine-1-carboxamide]

activity at 1 µM [1]: 727%
concentration at 150 min [2, 4]: 50 ng/mL
concentration at 150 min [2, 5]: 2 ng/mL
Compound: Cc1ccc(NC(=O)[C@H](C[C@H]2CCN(C(N)=O)C2)c2ccc(S(=O)(=O)C3CC3)cc2)nc1 [Example 21, (S)-3-((R)-2-(4-(cyclopropylsulfonyl)phenyl)-3-((5-methylpyridin-2-yl)amino)-3-oxopropyl)pyrrolidine-1-carboxamide]
selectivity ratio at 150 min ([3]; dose 10 mg/kg): 25

activity at 1 µM [1]: 427%
Compound: CNC(=O)C(=O)N1CC[C@H](C[C@@H](C(=O)Nc2ncc(F)s2)c2ccc(S(=O)(=O)C3CC3)cc2)C1 [Example 11]

activity at 1 µM [1]: 491%
concentration at 150 min ([2]; liver, dose 3 mg/kg, read-out: Non-binding concentration (ng/mL) Liver): 3 ng/mL
concentration at 150 min ([2]; pancreas, dose 3 mg/kg, read-out: Non-binding concentration (ng/mL) Pancreas): 0.33 ng/mL
Compound: CC(=O)N1CC[C@H](C[C@@H](C(=O)Nc2ccc(C)cn2)c2ccc(S(=O)(=O)C3CC3)cc2)C1 [Example 23, (R)-3-((S)-1-acetylpyrrolidin-3-yl)-2-(4-(cyclopropylsulfonyl)phenyl)-N-(5-methylpyridin-2-yl)propanamide]
selectivity ratio at 150 min ([2]; liver and pancreas, dose 3 mg/kg): 9

activity at 1 µM [1]: 809%
Compound: CNC(=O)N1CC[C@H](C[C@@H](C(=O)Nc2ncc(OC)s2)c2ccc(S(=O)(=O)C3CC3)cc2)C1 [Example 14, (S)-3-((R)-2-(4-(cyclopropylsulfonyl)phenyl)-3-((5-methoxythiazol-2-yl)amino)-3-oxopropyl)-N-methylpyrrolidine-1-carboxamide]

activity at 1 µM [1]: 437%
concentration at 150 min [2, 4]: 10 ng/mL
concentration at 150 min [2, 5]: 0.58 ng/mL
Compound: CNC(=O)N1CC[C@H](C[C@@H](C(=O)Nc2ccc(C)cn2)c2ccc(S(=O)(=O)C3CC3)cc2)C1 [Example 19, (S)-3-((R)-2-(4-(cyclopropylsulfonyl)phenyl)-3-((5-methylpyridin-2-yl)amino)-3-oxopropyl)-N-methylpyrrolidine-1-carboxamide]
selectivity ratio at 150 min ([3]; dose 10 mg/kg): 17

activity at 1 µM [1]: 443%
Compound: O=C(Nc1ncc(F)s1)[C@H](C[C@H]1CCN(C(=O)CO)C1)c1ccc(S(=O)(=O)C2CC2)cc1 [Example 13, (R)-2-(4-(cyclopropylsulfonyl)phenyl)-N-(5-fluorothiazol-2-yl)-3-((S)-1-(2-hydroxyacetyl)pyrrolidin-3-yl)propanamide]

activity at 1 µM [1]: 828%
Compound: COC(=O)N1CC[C@H](C[C@@H](C(=O)Nc2ncc(F)s2)c2ccc(S(=O)(=O)C3CC3)cc2)C1 [Example 7, (S)-methyl 3-((R)-2-(4-(cyclopropylsulfonyl)phenyl)-3-((5-fluorothiazol-2-yl)amino)-3-oxopropyl)pyrrolidine-1-carboxylate]
